Experimental data from PubChem BioAssay (NCI).
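Interpolation was linear, between the two tested concentrations surrounding the appropriate level; five concentrations were tested over 48 hours in 96-well plates. Here, GI50 denotes the concentration required for 50% inhibition of growth. TGI: concentration producing complete growth inhibition.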

Legend:
Test in all cases: growth of human tumour cells (NCI), 48 h
RPMI-8226 leukemia = tested on: RPMI-8226 leukemia
NCI-H460 lung = tested on: NCI-H460 lung
NCI-H23 lung = tested on: NCI-H23 lung
OVCAR-5 ovarian = tested on: OVCAR-5 ovarian
OVCAR-4 ovarian = tested on: OVCAR-4 ovarian
KM12 colon = tested on: KM12 colon
SK-MEL-2 melanoma = tested on: SK-MEL-2 melanoma
NCI/ADR-RES ovarian = tested on: NCI/ADR-RES ovarian
SF-268 CNS = tested on: SF-268 CNS
BT-549 breast = tested on: BT-549 breast
ACHN renal = tested on: ACHN renal
SK-OV-3 ovarian = tested on: SK-OV-3 ovarian
786-0 renal = tested on: 786-0 renal
HL-60(TB) leukemia = tested on: HL-60(TB) leukemia
SF-539 CNS = tested on: SF-539 CNS
PC-3 prostate = tested on: PC-3 prostate
HOP-92 NSCLC = tested on: HOP-92 NSCLC
CCRF-CEM leukemia = tested on: CCRF-CEM leukemia
MALME-3M melanoma = tested on: MALME-3M melanoma
EKVX NSCLC = tested on: EKVX NSCLC
SNB-75 CNS = tested on: SNB-75 CNS
A549 NSCLC = tested on: A549 NSCLC
T-47D breast = tested on: T-47D breast
SN12C renal = tested on: SN12C renal
SF-295 CNS = tested on: SF-295 CNS
SK-MEL-28 melanoma = tested on: SK-MEL-28 melanoma
SNB-19 CNS = tested on: SNB-19 CNS
SW-620 colon = tested on: SW-620 colon
OVCAR-3 ovarian = tested on: OVCAR-3 ovarian
CAKI-1 renal = tested on: CAKI-1 renal
MCF7 breast = tested on: MCF7 breast
UACC-257 melanoma = tested on: UACC-257 melanoma
UO-31 renal = tested on: UO-31 renal
TK-10 renal = tested on: TK-10 renal
SR leukemia = tested on: SR leukemia
COLO 205 colon = tested on: COLO 205 colon
HCT-15 colon = tested on: HCT-15 colon
HCC-2998 colon = tested on: HCC-2998 colon
NCI-H226 lung = tested on: NCI-H226 lung
MOLT-4 leukemia = tested on: MOLT-4 leukemia
UACC-62 melanoma = tested on: UACC-62 melanoma
HT29 colon = tested on: HT29 colon
MDA-MB-435 = tested on: MDA-MB-435
OVCAR-8 ovarian = tested on: OVCAR-8 ovarian
SK-MEL-5 melanoma = tested on: SK-MEL-5 melanoma
K-562 leukemia = tested on: K-562 leukemia
A498 renal = tested on: A498 renal
MDA-MB-231 breast = tested on: MDA-MB-231 breast
U251 CNS = tested on: U251 CNS
HOP-62 NSCLC = tested on: HOP-62 NSCLC
HS 578T breast = tested on: HS 578T breast
LOX IMVI melanoma = tested on: LOX IMVI melanoma
RXF 393 renal = tested on: RXF 393 renal
NCI-H522 lung = tested on: NCI-H522 lung
DU-145 prostate = tested on: DU-145 prostate
IGROV1 ovarian = tested on: IGROV1 ovarian

Question: What does the source list for COc1cc(C(=O)c2c(-c3ccccc3)oc3c(OC)cccc23)cc(OC)c1OC?
Answer: GI50 (RPMI-8226 leukemia): 112 nM; TGI (RPMI-8226 leukemia): > 100000 nM; GI50 (NCI-H460 lung): 51.8 nM; TGI (NCI-H460 lung): > 100000 nM; GI50 (NCI-H23 lung): 106 nM; TGI (NCI-H23 lung): 16800 nM; GI50 (OVCAR-5 ovarian): 158 nM; TGI (OVCAR-5 ovarian): > 100000 nM; TGI (OVCAR-4 ovarian): > 100000 nM; GI50 (KM12 colon): 56.7 nM; TGI (KM12 colon): > 100000 nM; GI50 (SK-MEL-2 melanoma): 2400 nM; TGI (SK-MEL-2 melanoma): > 84500 nM; GI50 (NCI/ADR-RES ovarian): 40.9 nM; GI50 (SF-268 CNS): 128 nM; TGI (SF-268 CNS): > 100000 nM; GI50 (BT-549 breast): 154 nM; TGI (BT-549 breast): 1500 nM; GI50 (ACHN renal): 71.9 nM; TGI (ACHN renal): > 100000 nM; GI50 (SK-OV-3 ovarian): 1570 nM; TGI (SK-OV-3 ovarian): > 100000 nM; GI50 (786-0 renal): 73 nM; TGI (786-0 renal): 3100 nM; GI50 (HL-60(TB) leukemia): 44.8 nM; TGI (HL-60(TB) leukemia): 200 nM; GI50 (SF-539 CNS): 29.3 nM; TGI (SF-539 CNS): 173 nM; GI50 (PC-3 prostate): 55.7 nM; TGI (PC-3 prostate): > 100000 nM; GI50 (HOP-92 NSCLC): 108 nM; TGI (HOP-92 NSCLC): 21500 nM; GI50 (CCRF-CEM leukemia): 53.2 nM; TGI (CCRF-CEM leukemia): > 100000 nM; GI50 (MALME-3M melanoma): 1320 nM; TGI (MALME-3M melanoma): > 100000 nM; GI50 (EKVX NSCLC): 67.4 nM; TGI (EKVX NSCLC): > 100000 nM; GI50 (SNB-75 CNS): 23.4 nM; TGI (SNB-75 CNS): 552 nM; GI50 (A549 NSCLC): 73.6 nM; TGI (A549 NSCLC): > 100000 nM; GI50 (T-47D breast): 31800 nM; TGI (T-47D breast): > 100000 nM; GI50 (SN12C renal): 257 nM; TGI (SN12C renal): > 100000 nM; GI50 (SF-295 CNS): 36.3 nM; TGI (SF-295 CNS): 1960 nM; GI50 (SK-MEL-28 melanoma): 13800 nM; TGI (SK-MEL-28 melanoma): > 100000 nM; GI50 (SNB-19 CNS): 78.9 nM; TGI (SNB-19 CNS): > 100000 nM; GI50 (SW-620 colon): 49.7 nM; TGI (SW-620 colon): > 100000 nM; GI50 (OVCAR-3 ovarian): 34.6 nM; TGI (OVCAR-3 ovarian): 363 nM; GI50 (CAKI-1 renal): 47.4 nM; TGI (CAKI-1 renal): 21900 nM; GI50 (MCF7 breast): 153 nM; TGI (MCF7 breast): > 100000 nM; GI50 (UACC-257 melanoma): 28300 nM; TGI (UACC-257 melanoma): > 100000 nM; GI50 (UO-31 renal): 119 nM; TGI (UO-31 renal): > 100000 nM; GI50 (TK-10 renal): 10000 nM; TGI (TK-10 renal): > 62200 nM; GI50 (SR leukemia): 36.3 nM; TGI (SR leukemia): > 100000 nM; GI50 (COLO 205 colon): 123 nM; TGI (COLO 205 colon): 485 nM; GI50 (HCT-15 colon): 44.4 nM; TGI (HCT-15 colon): > 100000 nM; GI50 (HCC-2998 colon): 211 nM; TGI (HCC-2998 colon): > 100000 nM; GI50 (NCI-H226 lung): 236 nM; GI50 (MOLT-4 leukemia): 345 nM; TGI (MOLT-4 leukemia): > 100000 nM; GI50 (UACC-62 melanoma): 52.2 nM; TGI (UACC-62 melanoma): > 96500 nM; GI50 (HT29 colon): 49.1 nM; TGI (HT29 colon): > 100000 nM; GI50 (MDA-MB-435): 21.6 nM; TGI (MDA-MB-435): 57.7 nM; GI50 (OVCAR-8 ovarian): 110 nM; TGI (OVCAR-8 ovarian): > 100000 nM; GI50 (SK-MEL-5 melanoma): 157 nM; TGI (SK-MEL-5 melanoma): 733 nM; GI50 (K-562 leukemia): 36.8 nM; TGI (K-562 leukemia): > 100000 nM; GI50 (A498 renal): 21.2 nM; TGI (A498 renal): 69.6 nM; GI50 (MDA-MB-231 breast): 203 nM; TGI (MDA-MB-231 breast): 2000 nM; GI50 (U251 CNS): 51.4 nM; TGI (U251 CNS): > 100000 nM; GI50 (HOP-62 NSCLC): 71 nM; TGI (HOP-62 NSCLC): 47000 nM; GI50 (HS 578T breast): 98.4 nM; TGI (HS 578T breast): > 24100 nM; GI50 (LOX IMVI melanoma): 53.6 nM; TGI (LOX IMVI melanoma): > 100000 nM; GI50 (RXF 393 renal): 41.4 nM; TGI (RXF 393 renal): 4690 nM; GI50 (NCI-H522 lung): 34.8 nM; TGI (NCI-H522 lung): > 34400 nM; GI50 (DU-145 prostate): 125 nM; TGI (DU-145 prostate): > 65600 nM; GI50 (IGROV1 ovarian): 67.7 nM; TGI (IGROV1 ovarian): > 100000 nM
